The record followed here is US11559538B2, “Substituted 1,2-oxaborolan-2-ols as PDE4 inhibitors” (Pfizer Inc., priority 2018, dated 2023).

Read-outs that look alike come from different tables or passages of the source.

By IC50 is commonly meant the point on the concentration scale where inhibition reaches its midpoint.

The target of test [1] is PDE4B (aa 152-484, Uniprot ID Q07343) (Homo sapiens (Human), UniProt Q07343). Briefly: PDE4 SPA assay (scintillation proximity assay). Conditions: read-out: PDE4B2 IC50. The test is classed as biochemical. An outline of the steps:
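PDE4B (aa 152-484, ~81.6 pM) preincubated ~10 min with compound, then 1 μM ³H/unlabeled cAMP added in Tris pH 7.5, 1.3 mM MgCl2, 0.004% Brij 35, ~2% DMSO; 30 min at RT. Product captured on SPA beads and counted; IC50 by four-parameter logistic fit.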
(In general: In a scintillation proximity assay essentially only radioactivity close to the scintillant gives light.)

Test [2] relates to IL-13. The test is described as follows: Cytokine assay: IL-13 release from PHA-L stimulated human PBMCs. The test is classed as cell-based. Conditions: read-out: IL13 IC50. An outline of the steps:
(§1)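 IC50 values came from four-parameter logistic fits of supernatant cytokine, which was quantified by HTRF. Mitogen stimulation used PHA-L at a final 3.5 μg/mL on about 250,000 thawed human PBMCs per well, in serum-containing RPMI medium with 0.25% DMSO, for 48 h.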

For test [3], the system named is IFNγ. Briefly: Cytokine assay: IFNγ release from PHA-L stimulated human PBMCs. It is filed as cell-based. The method, boiled down:
as §1

The subject of test [4] is IL-4. Briefly: Cytokine assay: IL-4 release from PHA-L stimulated human PBMCs. It is filed as cell-based. Conditions: read-out: IL4 IC50. An outline of the steps:
as §1

PDE4B (aa 152-484, Uniprot ID Q07343), sequence (Q07343 324-656): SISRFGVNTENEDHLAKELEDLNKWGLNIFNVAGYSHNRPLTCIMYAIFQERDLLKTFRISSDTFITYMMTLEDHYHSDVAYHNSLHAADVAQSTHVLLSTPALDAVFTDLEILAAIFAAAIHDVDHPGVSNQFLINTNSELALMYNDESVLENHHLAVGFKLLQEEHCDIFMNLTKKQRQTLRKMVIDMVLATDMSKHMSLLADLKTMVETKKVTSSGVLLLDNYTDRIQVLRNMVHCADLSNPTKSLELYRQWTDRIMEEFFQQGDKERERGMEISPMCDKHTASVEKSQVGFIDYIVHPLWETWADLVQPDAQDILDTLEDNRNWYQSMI

`CCCOc1cc(-c2nc(C3COB(O)C3)cc(C(F)(F)F)n2)ccc1OC` (stereo not drawn) [Example 55, 4-(2-(4-methoxy-3-propoxyphenyl)-6-(trifluoromethyl)pyrimidin-4-yl)-1,2-oxaborolan-2-ol]: the IC50 amounted to 2.21 nM in test [1], 576 nM in test [2], 2.27 nM in test [3] and 3.94 nM in test [4].

Consider `CCOc1cc(-c2cncc(C3COB(O)C3)n2)ccc1OC` (stereo not drawn) [Example 56, 4-(6-(3-ethoxy-4-methoxyphenyl)pyrazin-2-yl)-1,2-oxaborolan-2-ol], for which the IC50 in test [1] was found to be 2.81 nM; in test [2] (Homo sapiens, PBMC), 446 nM; in test [3] (Homo sapiens, PBMC), 3.62 nM; in test [4] (Homo sapiens, PBMC) it was 68 nM.

Consider `CCCOc1cc(-c2nc(CO)cc(C3COB(O)C3)n2)ccc1OC` (stereo not drawn) [Example 57, 4-(6-(hydroxymethyl)-2-(4-methoxy-3-propoxyphenyl)pyrimidin-4-yl)-1,2-oxaborolan-2-ol], for which the IC50 worked out at 10.2 nM in test [1]; 239 nM in test [2] (Homo sapiens, PBMC); 2.29 nM in test [3] (Homo sapiens, PBMC); 7.54 nM in test [4] (Homo sapiens, PBMC).

In the case of `CCOc1cc(-c2nc(C3COB(O)C3)cs2)ccc1OC` (stereo not drawn) [Example 58, 4-(2-(3-ethoxy-4-methoxyphenyl)thiazol-4-yl)-1,2-oxaborolan-2-ol], the IC50 was found to be 0.72 nM in test [1]; 103 nM in test [2] (Homo sapiens, PBMC); 1.81 nM in test [3] (Homo sapiens, PBMC); 163 nM in test [4] (Homo sapiens, PBMC).

Take `CCCOc1nc(-c2cncc(C3COB(O)C3)c2)ccc1OC` (stereo not drawn) [Example 60, 4-(5-methoxy-6-propoxy-[2,3′-bipyridin]-5′-yl)-1,2-oxaborolan-2-ol]: the IC50 in test [1] amounted to 0.34 nM; in test [2] (Homo sapiens, PBMC) it was 308 nM; in test [3] (Homo sapiens, PBMC) it was 0.53 nM; in test [4] (Homo sapiens, PBMC) it was 2.04 nM.

Take `COc1ccc(-c2cccc(C3COB(O)C3)c2)cc1OCCF` (stereo not drawn) [Example 63, 4-(3′-(2-fluoroethoxy)-4′-methoxy-[1,1′-biphenyl]-3-yl)-1,2-oxaborolan-2-ol]: the IC50 in test [1] was found to be 1.62 nM; in test [2] (Homo sapiens, PBMC) it was 312 nM; in test [3] (Homo sapiens, PBMC), 2.75 nM; in test [4] (Homo sapiens, PBMC) it was 57.9 nM.

Turning to `COc1ccc(-c2cncc(C3COB(O)C3)c2)cc1OC1CSC1` (stereo not drawn) [Example 68, 4-(5-(4-methoxy-3-(thietan-3-yloxy)phenyl)pyridin-3-yl)-1,2-oxaborolan-2-ol], the IC50 in test [1] stood at 0.47 nM; in test [2] (Homo sapiens, PBMC), 369 nM; in test [3] (Homo sapiens, PBMC), 1.5 nM; in test [4] (Homo sapiens, PBMC), 4.85 nM.

On to `CCOc1cc(-c2cncc(C3COB(O)C3)c2)c(C)cc1OC` (stereo not drawn) [Example 69, 4-(5-(5-ethoxy-4-methoxy-2-methylphenyl)pyridin-3-yl)-1,2-oxaborolan-2-ol], for which the IC50 in test [1] turned out to be 4.39 nM; in test [2] (Homo sapiens, PBMC) it was 373 nM; in test [3] (Homo sapiens, PBMC) it was 3.84 nM; in test [4] (Homo sapiens, PBMC) it was 6.51 nM.

With `CCOc1cc(-c2nc(C3COB(O)C3)ns2)ccc1OC` (stereo not drawn) [Example 72, 4-(5-(3-ethoxy-4-methoxyphenyl)-1,2,4-thiadiazol-3-yl)-1,2-oxaborolan-2-ol], the half-inhibitory concentration (IC50) in test [1] was determined as 0.85 nM; in test [2] (Homo sapiens, PBMC), 375 nM; in test [3] (Homo sapiens, PBMC), 6.21 nM; in test [4] (Homo sapiens, PBMC) it was 103 nM.

Turning to `CCOc1c(OC)ccc(-c2cncc(C3COB(O)C3)c2)c1F` (stereo not drawn) [Example 73, 4-(5-(3-ethoxy-2-fluoro-4-methoxyphenyl)pyridin-3-yl)-1,2-oxaborolan-2-ol], the IC50 in test [1] came to 2.19 nM; in test [2] (Homo sapiens, PBMC) it was 384 nM; in test [3] (Homo sapiens, PBMC), 1.66 nM; in test [4] (Homo sapiens, PBMC) it was 49.9 nM.

As to `COc1ccc(-c2cccc(C3COB(O)C3)c2)cc1OC(C)C` (stereo not drawn) [Example 75, 4-(3′-isopropoxy-4′-methoxy-[1,1′-biphenyl]-3-yl)-1,2-oxaborolan-2-ol], the IC50 was found to be 4.52 nM in test [1]; 395 nM in test [2] (Homo sapiens, PBMC); 5.98 nM in test [3] (Homo sapiens, PBMC); 125 nM in test [4] (Homo sapiens, PBMC).

`CCCOc1cc(-c2nc(CO)cc(C3COB(O)C3)n2)ccc1OC` (stereo not drawn) [Example 76, 4-(6-(hydroxymethyl)-2-(4-methoxy-3-propoxyphenyl)pyrimidin-4-yl)-1,2-oxaborolan-2-ol]: the IC50 was determined as 10 nM in test [1], 403 nM in test [2], 2.17 nM in test [3] and 5.75 nM in test [4].

Take `CCOc1cc(-c2cccc(C3COB(O)C3)c2)ccc1OC` (stereo not drawn) [Example 77, 4-(3′-ethoxy-4′-methoxy-[1,1′-biphenyl]-3-yl)-1,2-oxaborolan-2-ol]: the IC50 in test [1] amounted to 2.4 nM; in test [2] (Homo sapiens, PBMC), 415 nM; in test [3] (Homo sapiens, PBMC), 2.61 nM; in test [4] (Homo sapiens, PBMC), 40.8 nM.

On to `COc1ccc(-c2cncc(C3COB(O)C3)c2)cc1OC1CCSC1` (stereo not drawn) [Example 78, 4-(5-(4-methoxy-3-((tetrahydrothiophen-3-yl)oxy)phenyl)pyridin-3-yl)-1,2-oxaborolan-2-ol], for which the concentration for half-maximal inhibition (IC50) turned out to be 0.55 nM in test [1]; 416 nM in test [2]; 1.35 nM in test [3]; 19.1 nM in test [4] (Homo sapiens, PBMC).

As to `COc1ccc(-c2cncc(C3COB(O)C3)c2)cc1OC1CCSC1` (stereo not drawn) [Example 79, 4-(5-(4-methoxy-3-((tetrahydrothiophen-3-yl)oxy)phenyl)pyridin-3-yl)-1,2-oxaborolan-2-ol], the half-maximal inhibitory concentration (IC50) in test [1] is 1.38 nM; in test [2] it was 748 nM; in test [3], 0.82 nM; in test [4], 13.3 nM.

For the compound `COc1ccc(-c2cncc(C3COB(O)C3)c2)cc1OC1CCSC1` (stereo not drawn) [Example 80, 4-(5-(4-methoxy-3-((tetrahydrothiophen-3-yl)oxy)phenyl)pyridin-3-yl)-1,2-oxaborolan-2-ol], the concentration for half-maximal inhibition (IC50) was found to be 1.34 nM in test [1], 2150 nM in test [2], 4.62 nM in test [3] and 19.8 nM in test [4].

For `CCCOc1c(OC)ccc(-c2cncc(C3COB(O)C3)c2)c1F` (stereo not drawn) [Example 81, 4-(5-(2-fluoro-4-methoxy-3-propoxphenyl)pyridin-3-yl)-1,2-oxaborolan-2-ol], the IC50 stood at 2.36 nM in test [1]; 858 nM in test [2]; 1.62 nM in test [3] (Homo sapiens, PBMC); 54.4 nM in test [4].

As for `CCCOc1cc(-c2cncc(C3COB(O)C3)c2C)ccc1OC` (stereo not drawn) [Example 84, 4-(5-(4-methoxy-3-propoxyphenyl)-4-methylpyridin-3-yl)-1,2-oxaborolan-2-ol], the concentration for half-maximal inhibition (IC50) in test [1] worked out at 1.24 nM; in test [2] (Homo sapiens, PBMC), 444 nM; in test [3] (Homo sapiens, PBMC), 0.44 nM; in test [4] (Homo sapiens, PBMC), 0.9 nM.

Take `CCCOc1c(OC)ccc(-c2cccc(C3COB(O)C3)n2)c1C#N` (stereo not drawn) [Example 86, 6-(6-(2-hydroxy-1,2-oxaborolan-4-yl)pyridin-2-yl)-3-methoxy-2-propoxybenzonitrile]: the IC50 in test [1] stood at 7.26 nM; in test [2] (Homo sapiens, PBMC), 1330 nM; in test [3] (Homo sapiens, PBMC), 5 nM; in test [4] (Homo sapiens, PBMC) it was 105 nM.

On to `CCCOc1cc(-c2cccc(C3COB(O)C3)c2)ccc1OC` (stereo not drawn) [Example 88, 4-(4′-methoxy-3′-propoxy-[1,1′-biphenyl]-3-yl)-1,2-oxaborolan-2-ol], for which the IC50 in test [1] was 2.64 nM; in test [2] (Homo sapiens, PBMC) it was 609 nM; in test [3] (Homo sapiens, PBMC), 6.14 nM; in test [4] (Homo sapiens, PBMC), 63.7 nM.

In the case of `CCOc1cc(-c2nc(C3COB(O)C3)cs2)c(F)cc1OC` (stereo not drawn) [Example 91, 4-(2-(5-ethoxy-2-fluoro-4-methoxyphenyl)thiazol-4-yl)-1,2-oxaborolan-2-ol], the IC50 is 3 nM in test [1]; 460 nM in test [2] (Homo sapiens, PBMC); 3.92 nM in test [3] (Homo sapiens, PBMC); 5.9 nM in test [4] (Homo sapiens, PBMC).

On to `COc1cnc(-c2cccc(C3COB(O)C3)c2)nc1OC1CCCC1` (stereo not drawn) [Example 93, 4-(3-(4-(cyclopentyloxy)-5-methoxypyrimidin-2-yl)phenyl)-1,2-oxaborolan-2-ol], for which the IC50 was 0.5 nM in test [1]; 460 nM in test [2] (Homo sapiens, PBMC); 1.66 nM in test [3] (Homo sapiens, PBMC); 9.87 nM in test [4] (Homo sapiens, PBMC).

`CCOc1c(OC)ccc(-c2cncc(C3COB(O)C3)c2)c1C(F)(F)F` (stereo not drawn) [Example 94, 4-(5-(3-ethoxy-4-methoxy-2-(trifluoromethyl)phenyl)pyridin-3-yl)-1,2-oxaborolan-2-ol]: the IC50 was determined as 12.5 nM in test [1]; 606 nM in test [2] (Homo sapiens, PBMC); 3.88 nM in test [3] (Homo sapiens, PBMC); 9.58 nM in test [4] (Homo sapiens, PBMC).

As for `CCOc1ccc(-c2cncc(C3COB(O)C3)c2)cc1OCC` (stereo not drawn) [Example 96, 4-(5-(3,4-diethoxyphenyl)pyridin-3-yl)-1,2-oxaborolan-2-ol], the IC50 in test [1] is 1.69 nM; in test [2] (Homo sapiens, PBMC), 965 nM; in test [3] (Homo sapiens, PBMC), 5.27 nM; in test [4] (Homo sapiens, PBMC) it was 48.9 nM.

With `CSc1ccc(-c2cncc(C3COB(O)C3)c2)cc1OC1CCCC1` (stereo not drawn) [Example 99, 4-(5-(3-(cyclopentyloxy)-4-(methylthio)phenyl)pyridin-3-yl)-1,2-oxaborolan-2-ol], the half-maximal inhibitory concentration (IC50) worked out at 1.37 nM in test [1]; 957 nM in test [2] (Homo sapiens, PBMC); 9.42 nM in test [3] (Homo sapiens, PBMC); 44.3 nM in test [4] (Homo sapiens, PBMC).

In the case of `CCCOc1cc(-c2cncc(C3COB(O)C3)c2)ccc1OCC` (stereo not drawn) [Example 104, 4-(5-(4-ethoxy-3-propoxyphenyl)pyridin-3-yl)-1,2-oxaborolan-2-ol], the IC50 in test [1] was determined as 3.58 nM; in test [2] (Homo sapiens, PBMC) it was 750 nM; in test [3] (Homo sapiens, PBMC), 5.46 nM; in test [4] (Homo sapiens, PBMC), 29.4 nM.

Consider `COc1ccc(-c2cncc(C3COB(O)C3)c2)c(F)c1OC` (stereo not drawn) [Example 107, 4-(5-(2-fluoro-3,4-dimethoxyphenyl)pyridin-3-yl)-1,2-oxaborolan-2-ol], for which the IC50 in test [1] amounted to 2.41 nM; in test [2], 613 nM; in test [3] (Homo sapiens, PBMC), 4.17 nM; in test [4] (Homo sapiens, PBMC), 27.1 nM.
